According to patent US20250019350A1, “SYNTHESIS OF THE PROSTATE SPECIFIC MEMBRANE ANTIGEN (PSMA) RADIOLABELED INHIBITOR [18F]DCFPYL” (Progenics Pharmaceuticals, Inc, priority 2023, published 2025):

Assay: Radiolysis / stability of [18F]DCFPyL over time by HPLC with radiodetection (RCP, free 18F, radioactive impurities)
Format: physicochemical
Conditions: for RT 4.8 radioactive impurity: MPA = 0.25% of main peak; for RCP: T = 10 hour; for 18F-DCFPyL / Free 18F: forced radiolysis in ethanol, 364.5 mCi/mL; for RT 5.0 min / RT 5.9 min / RT 12.0 min / RT 12.2 min: radioactive impurity
Description: Those of ordinary skill in the art will be aware of techniques and systems for determining the radiochemical purity of a composition. In some cases, the radiochemical purity is determined using an HPLC associated with a radio-detector. Generally, the radiochemical purity is determined under ambient conditions (e.g., ambient temperature, ambient humidity, ambient light, etc.), such as in samples stored under such conditions.
Stability was assessed using reverse phase HPLC on a C18 column with a phosphate buffer/acetonitrile gradient mobile phase, and the elution profile was monitored using both UV and radiochemical detectors. Samples were analyzed either by direct injection onto the HPLC, dilution and injection or including the addition of tetraethylammonium fluoride (TEAF) into the sample before injection.
Known amounts of free ^18F either alone or spiked with TEAF were injected onto the analytic column and the eluent from the column collected over the course of a chromatogram and assaying the radioactivity using a Capintec. […] Adding TEAF into the analytic samples was incorporated into subsequent studies examining potential radiolysis of [^18F]DCFPyL to overcome some of the limitations of free ^18F quantification.
Analytical HPLC method was used. The method employs UV detection at 264 nm for chemical impurities, and an Eckert & Ziegler model B-FC-1000 gamma detector for radiochemical assays.

[1] = T = 6 hr, 5 mg/mL ascorbic acid pH 5.8, 20% ethanol, 99.0 mCi/mL at EOS
[2] = T = 6 hr, 50 mg/mL ascorbic acid pH 5.8, 20% ethanol, 139.7 mCi/mL at EOS
[3] = T = 6 hr, 100% ethanol, 325 mCi/mL at EOS
[4] = T = 7 hr, 100% ethanol, 325 mCi/mL at EOS
[5] = T = 8 hr, 100% ethanol, 325 mCi/mL at EOS
[6] = T = 9 hr, 100% ethanol, 325 mCi/mL at EOS
[7] = T = 10 hr, +TEAF added to sample before HPLC, 100% ethanol, 325 mCi/mL at EOS
[8] = T = 10 hr, 1 mg/mL ascorbic acid pH 5.8, 20% ethanol, 107.0 mCi/mL at EOS
[9] = T = 10 hr, 5 mg/mL ascorbic acid pH 5.8, 20% ethanol, 99.0 mCi/mL at EOS
[10] = T = 10 hr, 50 mg/mL ascorbic acid pH 5.8, 20% ethanol, 139.7 mCi/mL at EOS
[11] = T = 10 h, TEAF added (44 mg/mL) to sharpen the 18F peak
[12] = 147 mCi/mL in 0.9% Sodium Chloride, USP, T = 0 h
[13] = 147 mCi/mL in 0.9% Sodium Chloride, USP, T = 0.5 h
[14] = 147 mCi/mL in 0.9% Sodium Chloride, USP, T = 1.0 h
[15] = 147 mCi/mL in 0.9% Sodium Chloride, USP, T = 1.5 h
[16] = 147 mCi/mL in 0.9% Sodium Chloride, USP, T = 2.0 h
[17] = 147 mCi/mL in 0.9% Sodium Chloride, USP, T = 2.5 h
[18] = 147 mCi/mL in 0.9% Sodium Chloride, USP, T = 3.0 h
[19] = 147 mCi/mL in 0.9% Sodium Chloride, USP, T = 3.5 h
[20] = 147 mCi/mL in 0.9% Sodium Chloride, USP, T = 4.0 h
[21] = 256 mCi/mL in ethanol, T = 1.0 h
[22] = 256 mCi/mL in ethanol, T = 1.5 h
[23] = 256 mCi/mL in ethanol, T = 2.0 h
[24] = 256 mCi/mL in ethanol, T = 2.5 h
[25] = 256 mCi/mL in ethanol, T = 3.0 h
[26] = 256 mCi/mL in ethanol, T = 3.5 h
[27] = 256 mCi/mL in ethanol, T = 4.0 h

Structure (SMILES): O=C(O)CC[C@H](NC(=O)N[C@@H](CCCCNC(=O)c1ccc([18F])nc1)C(=O)O)C(=O)O [Lot 18F-DCFPyL, 2-(3-{1-carboxy-5-[(6-[18F]fluoro-pyridine-3-carbonyl)-amino]-pentyl}ureido)-pentanedioic acid]
- Free F-18 (T = 6 hr, 1 mg/mL ascorbic acid pH 5.8, 20% ethanol, 107.0 mCi/mL at EOS): 1.57%
- Free F-18 (T = 6 hr, 1 mg/mL sodium ascorbate, 20% ethanol, 111.5 mCi/mL at EOS): 2.81%
- 18F-DCFPyL (% RCP) [1]: 99.09%
- Free F-18 [1]: 0.91%
- Free F-18 (T = 6 hr, 5 mg/mL sodium ascorbate, 20% ethanol, 114.6 mCi/mL at EOS): 1.45%
- 18F-DCFPyL (% RCP) [2]: 99.64%
- Free F-18 [2]: 0.36%
- RT 4.8 radioactive impurity [2]: <MPA
- 18F-DCFPyL (RCP) [3]: 96.73%
- Free F-18 [3]: 4.27%
- 18F-DCFPyL (RCP) [4]: 96.42%
- Free F-18 [4]: 4.58%
- 18F-DCFPyL (RCP) [5]: 95.76%
- Free F-18 [5]: 4.24%
- 18F-DCFPyL (RCP) [6]: 95.31%
- Free F-18 [6]: 4.69%
- RCP (120 mCi/mL, ascorbic acid 5.6 mg/mL pH 6.0): 96.9%
- RCP (127 mCi/mL, ascorbic acid 2.8 mg/mL pH 6.0): 96.1%
- RCP (166 mCi/mL, ascorbic acid 5.6 mg/mL pH 6.0): 95.5%
- 18F-DCFPyL (RCP) [7]: 92.7%
- Free F-18 [7]: 7.35%
- Free F-18 (T = 10 hr, +TEAF added to sample before HPLC, 100% ethanol, 325 mCi/mL at EOS, listed as 18F DCFPyL): 7.4%
- Free F-18 (T = 10 hr, no TEAF, 100% ethanol, 325 mCi/mL at EOS): 4.55%
- Free F-18 (T = 10 hr, no TEAF, 100% ethanol, 325 mCi/mL at EOS, listed as 18F DCFPyL): 4.6%
- Free F-18 (T = 10 hr, 0.5 mg/mL ascorbic acid pH 5.8, 20% ethanol, 105.8 mCi/mL at EOS): 1.42%
- 18F-DCFPyL (% RCP) [8]: 98.36%
- Free F-18 [8]: 1.64%
- Free F-18 (T = 10 hr, 1 mg/mL sodium ascorbate, 20% ethanol, 111.5 mCi/mL at EOS): 2.74%
- 18F-DCFPyL (% RCP) [9]: 99.05%
- Free F-18 [9]: 0.95%
- Free F-18 (T = 10 hr, 5 mg/mL sodium ascorbate, 20% ethanol, 114.6 mCi/mL at EOS): 1.51%
- 18F-DCFPyL (% RCP) [10]: 99.34%
- Free F-18 [10]: 0.30%
- RT 4.8 radioactive impurity [10]: 0.36%
- 18F-DCFPyL (RCP) (T = 10 hr, 100% ethanol, 325 mCi/mL at EOS): 95.45%
- 18F-DCFPyL (RCP) (T = 10 hr, 100% ethanol, 325 mCi/mL at EOS, listed as 18F DCFPyL): 95.5%
- 18F-DCFPyL (T = 0 h): 98.37 area %
- Free 18F (T = 0 h): 1.63 area %
- 18F-DCFPyL (T = 1 h): 96.66 area %
- Free 18F (T = 1 h): 3.34 area %
- 18F-DCFPyL (T = 2 h): 96.38 area %
- Free 18F (T = 2 h): 3.62 area %
- 18F-DCFPyL (T = 3 h): 95.71 area %
- Free 18F (T = 3 h): 4.29 area %
- 18F-DCFPyL (T = 4 h): 95.60 area %
- Free 18F (T = 4 h): 4.40 area %
- 18F-DCFPyL (T = 5 h): 95.58 area %
- Free 18F (T = 5 h): 4.42 area %
- 18F-DCFPyL (T = 6 h): 95.73 area %
- Free 18F (T = 6 h): 4.27 area %
- 18F-DCFPyL (T = 7 h): 95.42 area %
- Free 18F (T = 7 h): 4.58 area %
- 18F-DCFPyL (T = 8 h): 95.76 area %
- Free 18F (T = 8 h): 4.24 area %
- 18F-DCFPyL (T = 9 h): 95.31 area %
- Free 18F (T = 9 h): 4.69 area %
- 18F-DCFPyL (T = 10 h): 95.45 area %
- Free 18F (T = 10 h): 4.55 area %
- 18F-DCFPyL [11]: 92.65 area %
- Free 18F [11]: 7.35 area %
- two impurities eluting before the 18F-DCFPyL peak, upper end of range (<LLQ to ...) (over 4 hours, 110 mCi/mL lot, 50 mg/mL pH 5.8 ascorbic acid, 24% (w/w) ethanol): ≤ 0.37%
- impurity eluting before the 18F-DCFPyL peak, upper end of range (<LLQ to ...) (over 4 hours, 256 mCi/mL lot, 100 mg/mL pH 2.0 ascorbic acid in collection vial): ≤ 0.35%
- RT 5.0 min (110 mCi/mL in 50 mg/mL pH 5.8 ascorbic acid, T = 0 h): 0.27 area %
- RT 5.0 min (110 mCi/mL in 50 mg/mL pH 5.8 ascorbic acid, T = 0.5 h): 0.28 area %
- RT 5.0 min (110 mCi/mL in 50 mg/mL pH 5.8 ascorbic acid, T = 1.0 h): 0.26 area %
- RT 5.0 min (110 mCi/mL in 50 mg/mL pH 5.8 ascorbic acid, T = 1.5 h): 0.34 area %
- RT 5.0 min (110 mCi/mL in 50 mg/mL pH 5.8 ascorbic acid, T = 2.0 h): 0.24 area %
- RT 5.0 min (110 mCi/mL in 50 mg/mL pH 5.8 ascorbic acid, T = 2.5 h): 0.34 area %
- RT 5.0 min (110 mCi/mL in 50 mg/mL pH 5.8 ascorbic acid, T = 3.0 h): 0.35 area %
- RT 5.0 min (110 mCi/mL in 50 mg/mL pH 5.8 ascorbic acid, T = 3.5 h): 0.31 area %
- RT 5.0 min (110 mCi/mL in 50 mg/mL pH 5.8 ascorbic acid, T = 4.0 h): 0.31 area %
- RT 5.0 min [12]: 0.50 area %
- RT 5.9 min [12]: 0.64 area %
- RT 5.0 min [13]: 0.65 area %
- RT 5.9 min [13]: 0.97 area %
- RT 5.0 min [14]: 0.48 area %
- RT 5.9 min [14]: 1.11 area %
- RT 5.0 min [15]: 0.61 area %
- RT 5.9 min [15]: 1.03 area %
- RT 5.0 min [16]: 0.77 area %
- RT 5.9 min [16]: 1.05 area %
- RT 5.0 min [17]: 0.62 area %
- RT 5.9 min [17]: 0.93 area %
- RT 5.0 min [18]: 0.70 area %
- RT 5.9 min [18]: 0.87 area %
- RT 5.0 min [19]: 0.59 area %
- RT 5.9 min [19]: 0.95 area %
- RT 5.0 min [20]: 0.71 area %
- RT 5.9 min [20]: 0.96 area %
- RT 5.0 min [21]: 0.35 area %
- RT 12.0 min [21]: 0.35 area %
- RT 12.2 min [21]: 0.31 area %
- RT 5.0 min [22]: 0.28 area %
- RT 12.0 min [22]: 0.46 area %
- RT 12.2 min [22]: 0.37 area %
- RT 5.0 min [23]: 0.50 area %
- RT 12.0 min [23]: 0.52 area %
- RT 12.2 min [23]: 0.47 area %
- RT 12.0 min [24]: 0.52 area %
- RT 12.2 min [24]: 0.46 area %
- RT 12.0 min [25]: 0.69 area %
- RT 12.2 min [25]: 0.57 area %
- RT 12.0 min [26]: 0.87 area %
- RT 12.2 min [26]: 0.75 area %
- RT 12.0 min [27]: 0.96 area %
- RT 12.2 min [27]: 0.69 area %
